These results are taken from US20260256751A1, “COMBINATION OF BETA-2-ADRENERGIC RECEPTOR AGONISTS AND GLP-1 RECEPTOR AGONISTS FOR USE IN TREATING HYPERGLYCAEMIA” (ATROGI AB, priority 2023, published 2026).

For experiment [1], the system named is differentiated L6-myotubes. Kind of experiment: Glucose uptake screen (Biological example 1 of WO 2019/053427). It counts as cell-based. The settings on record: compound at 10 μM, activity relative to isoproterenol at 10 μM, read-out: Biological example 1 of WO 2019/053427 (GU). Put shortly:
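Uptake was read out as ^3H-2-deoxyglucose (50 nM, 10 min) radioactivity in NaOH lysates. Beforehand, overnight-starved, differentiated L6 myotubes received compound at 1×10^−5 M with ICI-118551 present for 1 h 40 min, followed by fresh agonist for a further 20 min in glucose-free medium.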

Experiment [2] concerns differentiated L6-myotubes. Kind of experiment: cAMP production relative to isoprenaline (Biological example 2 of WO 2019/053427). It counts as cell-based. The note with it: 0.25 h, compound at 10 μM, activity relative to isoproterenol at 10 μM. Put shortly:
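Values are cAMP levels relative to isoprenaline at equal concentration (final 1×10^−5 M for both). Stimulation lasted 15 min in differentiated L6 myotubes, using HBSS buffer (pH 7.4) containing 1 mM IBMX, 5 mM HEPES and 1% BSA.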
(In general: Changes in cAMP serve as a functional read-out for many G protein-coupled receptors.)

For `CC12CC(C1)[C@H]([C@H](O)c1cccc(Cl)c1)N2` [Compound 206, (R)-{(R)-1-methyl-2-azabicyclo[2.1.1]hex-3-yl}(m-chlorophenyl)methanol], the figures for the Emax at 10 µM in experiment [1] and in experiment [2] were greater than 75% and less than 25%, respectively.
The matching figures for `CC12CC(C1)[C@@H]([C@@H](O)c1cccc(Cl)c1)N2` [Compound 207, (S)-{(S)-1-methyl-2-azabicyclo[2.1.1]hex-3-yl}(m-chlorophenyl)methanol]: 25 to 50% and less than 25%.
The matching figures for `CC12CC(C1)[C@H]([C@@H](O)c1cccc(Cl)c1)N2` [Compound 208, (S)-{(R)-1-methyl-2-azabicyclo[2.1.1]hex-3-yl}(m-chlorophenyl)methanol]: 50 to 75% and less than 25%.
The matching figures for `CC12CC(C1)[C@@H]([C@H](O)c1cccc(Cl)c1)N2` [Compound 209, (R)-{(S)-1-methyl-2-azabicyclo[2.1.1]hex-3-yl}(m-chlorophenyl)methanol]: 25 to 50% and less than 25%.
In the case of `CC12CC(C1)[C@H]([C@H](O)c1ccccc1F)N2` [Compound 210, (R)-{(R)-1-methyl-2-azabicyclo[2.1.1]hex-3-yl}(o-fluorophenyl)methanol], the Emax at 10 µM in experiment [1] and in experiment [2] was greater than 75% in each case.
With `CC12CC(C1)[C@@H]([C@@H](O)c1ccccc1F)N2` [Compound 211, (S)-{(S)-1-methyl-2-azabicyclo[2.1.1]hex-3-yl}(o-fluorophenyl)methanol], the values for the Emax at 10 µM in experiment [1] and in experiment [2] were greater than 75% and less than 25%, respectively.
Regarding `CC12CC(C1)[C@H]([C@@H](O)c1ccccc1F)N2` [Compound 212, (S)-{(R)-1-methyl-2-azabicyclo[2.1.1]hex-3-yl}(o-fluorophenyl)methanol], the Emax at 10 µM in experiment [1] was greater than 75%; in experiment [2] it was less than 25%.
For `CC12CC(C1)[C@@H]([C@H](O)c1ccccc1F)N2` [Compound 213, (R)-{(S)-1-methyl-2-azabicyclo[2.1.1]hex-3-yl}(o-fluorophenyl)methanol], in that order: greater than 75% and less than 25%.
For `CC1(C)C[C@H]([C@H](O)c2cncc(F)c2)N1` [Compound 214, (R)-[(R)-4,4-dimethyl-2-azetidinyl](5-fluoro-3-pyridyl)methanol], in that order: greater than 75% and less than 25%.
The matching figures for `CC1(C)C[C@@H]([C@@H](O)c2cncc(F)c2)N1` [Compound 215, (S)-[(S)-4,4-dimethyl-2-azetidinyl](5-fluoro-3-pyridyl)methanol]: 25 to 50% and less than 25%.
`CC1(C)C[C@@H]([C@H](O)c2cncc(F)c2)N1` [Compound 216, (R)-[(S)-4,4-dimethyl-2-azetidinyl](5-fluoro-3-pyridyl)methanol]: the Emax at 10 µM was 25 to 50% in experiment [1] and less than 25% in experiment [2].
The matching figures for `CC1(C)C[C@H]([C@@H](O)c2cncc(F)c2)N1` [Compound 217, (S)-[(R)-4,4-dimethyl-2-azetidinyl](5-fluoro-3-pyridyl)methano]: 25 to 50% and less than 25%.
`CCC[C@@H]1CCCC[C@H]([C@@H](O)c2cncc(F)c2)N1` [Compound 218, (S)-[(2R,7R)-7-propyl-2-azepanyl](5-fluoro-3-pyridyl)methanol]: the Emax at 10 µM in experiment [1] and in experiment [2] was less than 25% in each case.
In the case of `CCC[C@@H]1CCCC[C@H]([C@H](O)c2cncc(F)c2)N1` [Compound 219, (R)-[(2R,7R)-7-propyl-2-azepanyl](5-fluoro-3-pyridyl)methanol], the Emax at 10 µM in experiment [1] and in experiment [2] was less than 25% each time.
`CC12CC(C1)[C@H]([C@H](O)c1cncc(F)c1)N2` [Compound 220, (R)-{(R)-1-methyl-2-azabicyclo[2.1.1]hex-3-yl}(5-fluoro-3-pyridyl)methanol]: the figures for the Emax at 10 µM in experiment [1] and in experiment [2] were greater than 75% and less than 25%, respectively.
For `CC12CC(C1)[C@@H]([C@@H](O)c1cncc(F)c1)N2` [Compound 221, (S)-{(S)-1-methyl-2-azabicyclo[2.1.1]hex-3-yl}(5-fluoro-3-pyridyl)methanol], in that order: 50 to 75% and less than 25%.
For `CC12CC(C1)[C@H]([C@@H](O)c1cncc(F)c1)N2` [Compound 222, (S)-{(R)-1-methyl-2-azabicyclo[2.1.1]hex-3-yl}(5-fluoro-3-pyridyl)methanol], in that order: less than 25% and less than 25%.
The matching figures for `CC12CC(C1)[C@@H]([C@H](O)c1cncc(F)c1)N2` [Compound 223, (R)-{(S)-1-methyl-2-azabicyclo[2.1.1]hex-3-yl}(5-fluoro-3-pyridyl)methanol]: 25 to 50% and less than 25%.
For the compound `CO[C@H]1CC[C@H](CCNC[C@H](O)c2cccc(F)c2)CC1` [Compound 224, (R)-1-(m-fluorophenyl)-2-{2-[(1r,4R)-4-methoxycyclohexyl]ethyl-amino}-1-ethanol], the Emax at 10 µM is 25 to 50% in experiment [1] and less than 25% in experiment [2].
The matching figures for `CO[C@H]1CC[C@H](CCNC[C@H](O)c2cncc(F)c2)CC1` [Compound 225, (R)-1-(5-fluoro-3-pyridyl)-2-{2-[(1r,4R)-4-methoxycyclohexyl]ethyl-amino}-1-ethanol]: 50 to 75% and less than 25%.
The matching figures for `CC1(C)CC[C@H]([C@@H](O)c2cccc(N)c2F)N1` [Compound 226, (S)-[(R)-5,5-dimethyl-2-pyrrolidinyl](3-amino-2-fluorophenyl)methanol]: 25 to 50% and less than 25%.
As for `CC1(C)CC[C@H]([C@H](O)c2cccc(N)c2F)N1` [Compound 227, (R)-[(R)-5,5-dimethyl-2-pyrrolidinyl](3-amino-2-fluorophenyl)methanol], the results for the Emax at 10 µM in experiment [1] and in experiment [2] were greater than 75% and less than 25%, respectively.
The matching figures for `CO[C@H]1CC[C@H](CNC[C@H](O)c2cccc(F)c2)CC1` [Compound 228, (R)-1-(m-fluorophenyl)-2-({[(1r,4R)-4-methoxycyclohexyl]meth-yl}amino)-1-ethanol]: 50 to 75% and less than 25%.
For `CO[C@H]1CC[C@H](CNC[C@H](O)c2cncc(F)c2)CC1` [Compound 229, (R)-1-(5-fluoro-3-pyridyl)-2-({[(1r,4R)-4-methoxycyclohexyl]meth-yl}amino)-1-ethanol], the Emax at 10 µM in experiment [1] is 50 to 75%; in experiment [2] it was less than 25%.
In the case of `CC1(C)C[C@H]([C@H](O)c2cccc(Cl)c2)N1` [Compound 230, (R)-[(R)-4,4-dimethyl-2-azetidinyl](m-chlorophenyl)methanol], the Emax at 10 µM in experiment [1] is greater than 75%; in experiment [2], less than 25%.
For `CC1(C)C[C@@H]([C@@H](O)c2cccc(Cl)c2)N1` [Compound 231, (S)-[(S)-4,4-dimethyl-2-azetidinyl](m-chlorophenyl)methanol], in that order: 25 to 50% and less than 25%.
For `CC1(C)C[C@@H]([C@H](O)c2cccc(Cl)c2)N1` [Compound 232, (R)-[(S)-4,4-dimethyl-2-azetidinyl](m-chlorophenyl)methanol], in that order: 25 to 50% and less than 25%.
